In US20040171594A1, “Use of bis-acid(5-androsten-17-one-3beta-hydroxyl)diester for manufacture pharmaceuticals” (priority 2001, published 2004):
Marks after values point to notes of the source that are not given here.

Columns and labels:
[1] = system: arrhythmia of rats induced by Aconitine; assay: Arrhythmia of rats induced by Aconitine; type: in vivo, SD rats
Experimental: Male SD rats, weighing (218.3±20.0) g, were anaesthetized with urethane 1.2 g/kg body weight by abdominal injection, continuously monitored by II lead electrocardiogram (ECG) by MS302 Biological Signal Record and Analysis System. After ten minutes of being administered drug or 0.5% CMC-Na through sublingual vein, rats were injected with Aconitine in external jugular vein at 2.5 μg/min speed, recorded the dose at appearance time of ventricular premature beat (VP), ventricular tachycardia (VT), ventricular fibrillation (VF) and cardiac arrest (CA), respectively. And t test was performed. […] The effect of compounds Ca Do E at 0.5 mg/kg dose were remarkably better than that of Prasterone and Arniodarone.

[2] = system: myocardium injury model of rats induced by ISO; assay: Myocardium injury (myocardial ischemia) model of rats induced by ISO; type: in vivo, SD rats; settings: drug 0.76 mg/kg, n=8; for Σ ST: rats, ISO s.c.
Experimental: SD rats were measured ECG by chest leads before experiment, abandoned those of abnormal or arrhythmia at T wave, ST sect. […] They were divided into four groups according to Table 4, eight rats in each group. As dose of Table 4, tested compounds or 0.5% CMC-Na solution with same volume were administered through duodenum for 30 minutes, rats were anaesthetized with aether. After ECG was recorded, Isoproterenol (ISO) was administered by subcutaneous injection from the back, recorded ECG again after 30 minutes. After specimen was intragastricly granted for 24 hours and 48 hours, every group was administered simples again and recorded ECG again in terms of the methods stated above. After 72 hours, bleeding from the ophthalmic venous plexus and separated blood serum through centrifugation. Killed the rats, scissor the tip of the heart to prepare 10% myocardial tissue homogenate with 4° C. physiological saline as standby.
Measured each rat's value of ST before first administering ISO. And after first, second and third subcutaneous injection for 30 minutes, calculated mv mean value of ΣST as guide line of myocardium injury and performed t test.
The changes of MDA LDH and CK in serum were measured with agent kits.
The changes of MDA, LDH and CK in serum and myocardial tissue homogenate were measured with agent kits.

[3] = system: cerebral ischemia-reperfusion injury of mice; assay: Memory step-through test after cerebral ischemia-reperfusion injury; type: in vivo, NIH mice; settings: 4.5 mg/kg intragastric once a day for 10 days, n=10
Experimental: After weighed, NIH mice were anaesthetized with Penbotarbital 60 mg/kg, then performed operation. Fixed at supine position, the skin in the middle of the deck was dissected about 7 mm. Separated common carotid artery of two sides of neck, surrounded with the thread of No “0”. Common carotid artery of two sides was chipped with artery clip for 2 minutes to induce cerebral ischemia. In the end of ischemia treatment, artery clip was loosed and blood perfusion was restored, rest for five minutes, repeated twice as that. After blocking blood flow of carotid, sutured incision. Recorded trail bloodletting, bloodletting quantity was no more than 10% of total blood quantity. After operation, […] were administered with proper physiological saline through intraperitoneal injection in order to supple capacity of blood. After pseudo operation group was anaesthetized, carotid of two sides was separated but blood flow was not blocked, without being bloodletting too.
In experiment appearance of body temperature lowering and righting reflex disappearing was as positive guide-line of ischemia, discarding those without typical guide line of ischemia. In the procedure of ischemia or after operation, some of animals would be dead. […] According to the dose of Table 7, animals were administered with medicine by intragastric intubation once a day, and continue administered drug for 10 days. After 10 days, memory test was performed.

[4] = system: thymus and spleen of mice; assay: Indexes of thymus and spleen of mice injected with cyclophosphamide; type: in vivo, NIH mice; settings: cyclophosphamide 60 mg/kg i.p., drug 10 mg/kg intragastric for 30 days, n=10
Experimental: Chose 90 healthy NIH mice, weighing (18˜22)g, equal amount of male and female. Every mouse was injected with cyclophos phamide (60 mg/kg, intraperitoneally). […] Administered specimen through intragastric intubation in terms of the dose in Table 8. Continuously administered orally specimen for 30 days, all mice fasted on the 30th day, but were supplied with water. On the 31th day, mice of every group were killed. Weighed their body, thymus and spleen, calculated index of thymus and spleen, compared the difference among each group.

[5] = system: osteoporosis model of rats induced by Retinoic acid; assay: Osteoporosis model of rats induced by Retinoic acid; type: in vivo, SD rats; settings: Retinoic acid 70 mg/kg, specimen orally 30 days (dose not given), right thighbone, n=8
Excerpt: After continuously administering specimen for 30 days, killed rats and took right thighbone of rat.
Took same part tissue of right thighbone, routinely decalcified, enveloped with olefin, and dyed with HE. Observed with ordinary optics microscope, import all imagines into computer with A/D conversion of pickup camera, via dealing with image analysis software obtained index of guide line as follows: relative bone volume, indicating percentage that bone trabecula accounted for medullary cavity, 1.25×10×4 times; average width of bone trabecula, 1.25×10×10 times; amount of cell per area in bone trabecula, gathering same area image (640×480) of bone trabecula with image analysis software, calculating amount of bone cell in corresponding area, 1.25×10×40 times; Average length of bone cell lacuna, 1.25×10×40; Average width of bone cell lacuna, 1.25×10×40. The above five indexes of static state guide-line were all observed for ten eyeshots, calculating their average value.

[6] = system: acute renal failure of mice induced by endotoxin; assay: Acute renal failure model induced by endotoxin; type: in vivo, NIH mice; settings: drug 10 mg/kg i.p., endotoxin 0.06 g/kg, after five hours, n=10; for GSH-Px: mice kidney homogenate; for BUN / Cr: mice serum
Experimental: After five hours, blood of the mice was collected by removing eyes, assayed Blood Urea Nitrogen (BUN) and Creatinine (Cr) concentration of serum. One kidney of each […] was taken out and made 100 mL/L homogenate, assayed activity of Glutathione Peroxidase (GSH-Px) enzyme.

[7] = system: arrhythmia of guinea pigs induced by Ouabain; assay: Arrhythmia of guinea pigs induced by Ouabain; type: in vivo; settings: n=8
Experimental: Chose 40 male guinea pigs, weighing (288.8±38.3) g, randomly divided into six groups, anaesthetized with urethane 1.2 g/kg by abdominal injection. Ten minutes after administered drug or 0.5% CMC-Na, the guinea pigs were injected Ouabain into external jugular vein at 3 μg/min speed, recorded ECG respectively, measured the dose at appearance time of VP, VT, VF and CA, and performed t test.

[8] = rats, drug 0.5 mg/kg sublingual vein 10 min before Aconitine 2.5 μg/min, n=10
[9] = myocardial tissue homogenate of rats with ISO myocardium injury
[10] = serum of rats with ISO myocardium injury, after 72 hours
[11] = drug 4.5 mg/kg 10 min before Ouabain 3 μg/min
[12] = drug 2.5 mg/kg 10 min before Ouabain 3 μg/min

Compound	Dose of Aconitine required to induce CA [1, 8] [mg/kg]	Dose of Aconitine required to induce VF [1, 8] [mg/kg]	Dose of Aconitine required to induce VP [1, 8] [mg/kg]	Dose of Aconitine required to induce VT [1, 8] [mg/kg]	Activity of CK [2, 9] [U/L]	MDA [2, 9] [nmol/g]	Σ ST ([2]; 30 min) [mv]	Σ ST ([2]; 24 h) [mv]	Σ ST ([2]; 48 h) [mv]	Σ ST ([2]; 72 h) [mv]	Activity of CK [2, 10] [U/L]	Activity of LDH [2, 10] [U/L]	MDA [2, 10] [nmol/mL]	Latency of dark cabin, Memory [3] [s]	Latency of dark cabin, Study [3] [s]	Number of error [3] [n]	Amount of cell per area in bone trabecula [5]	Average width of bone trabecula [5] [μm]	GSH-Px [6] [nU · L^−1]	BUN [6]	also measured
C[C@]12CC[C@H](OC(=O)CCCC(=O)O[C@H]3CC[C@@]4(C)C(=CC[C@@H]5[C@@H]4CC[C@]4(C)C(=O)CC[C@@H]54)C3)CC1=CC[C@@H]1[C@@H]2CC[C@]2(C)C(=O)CC[C@@H]12 [Compound E, glutaric acid-(5-androsten-17-one-3β-ol)-diester]	0.1845 ± 0.0271	0.1634 ± 0.0305	0.1082 ± 0.0374	0.1224 ± 0.0378	206.18 ± 43.80	89.62 ± 12.37	0.53 ± 0.11	0.50 ± 0.10	0.57 ± 0.04	0.51 ± 0.07	275.44 ± 21.81	267.35 ± 38.42	25.54 ± 3.80	45.8 ± 12.9	24.1 ± 16.0	3.1 ± 2.7	19.35 ± 3.13	68.66 ± 9.80	32.0 ± 14.4	315.9 ± 40.8*** 10 mg · L^−1	Activity of LDH [2, 9]: 160.27 ± 20.36 U/L; Index of spleen [4]: 68.20 ± 9.82 mg/10 g body weight; Index of thymus [4]: 20.22 ± 2.75 mg/10 g body weight; Relative bone volume [5]: 35.87 ± 3.12 %; Cr [6]: 32.86 ± 8.07*** 10 mg · L^−1
C[C@]12CC[C@H](OC(=O)CC(=O)O[C@H]3CC[C@@]4(C)C(=CC[C@@H]5[C@@H]4CC[C@]4(C)C(=O)CC[C@@H]54)C3)CC1=CC[C@@H]1[C@@H]2CC[C@]2(C)C(=O)CC[C@@H]12 [Compound C, malonic acid-(5-androsten-17-one-3β-ol)-diester]	0.1865 ± 0.0317	0.1528 ± 0.0393	0.098 ± 0.0291	0.1189 ± 0.0353	186.55 ± 26.25	121.67 ± 15.24	0.64 ± 0.21	0.52 ± 0.11	0.50 ± 0.14	0.52 ± 0.12	262.50 ± 35.41	270.13 ± 27.46	28.29 ± 6.56	58.1 ± 16.2	24.4 ± 17.3	2.5 ± 1.5	19.50 ± 5.54	72.69 ± 10.38	29.8 ± 11.6	387.0 ± 40.2*** 10 mg · L^−1	Activity of LDH [2, 9]: 201.33 ± 25.24 U/L
C[C@]12CC[C@H](O)CC1=CC[C@@H]1[C@@H]2CC[C@]2(C)C(=O)CC[C@@H]12 [Parsterone, Prasterone, reference compound]	–	–	–	–	–	–	–	–	–	–	–	–	–	–	–	–	–	–	–	–	Dose of Aconitine required to induce CA ([1]; {}): 0.1645 ± 0.0271 mg/kg; Dose of Aconitine required to induce VF ([1]; {}): 0.1327 ± 0.0244 mg/kg; Dose of Aconitine required to induce VP ([1]; {}): 0.0935 ± 0.019 mg/kg; Dose of Aconitine required to induce VT ([1]; {}): 0.11 ± 0.0161 mg/kg; Dose of Oua at appearance of CA [7, 11]: 0.1955 ± 0.033 mg/kg; Dose of Oua at appearance of VF [7, 11]: 0.1654 ± 0.0264 mg/kg; Dose of Oua at appearance of VP [7, 11]: 0.0893 ± 0.0155 mg/kg; Dose of Oua at appearance of VT [7, 11]: 0.1316 ± 0.0246 mg/kg
C=C1/C(=C\C=C2/CCC[C@]3(C)[C@@H]([C@H](C)CCCC(C)(C)O)CC[C@@H]23)C[C@@H](O)C[C@@H]1O [Rocaltrol, reference compound]	–	–	–	–	–	–	–	–	–	–	–	–	–	–	–	–	19.27 ± 3.89	67.16 ± 13.11	–	–	Relative bone volume [5]: 36.72 ± 7.82 %
propanediol-disulphonic acid-(5-androsten-17-one-3β-ol)-diester [Compound H]	–	–	–	–	230.15 ± 53.46	105.52 ± 14.64	0.53 ± 0.11	0.50 ± 0.10	0.52 ± 0.04	0.51 ± 0.12	261.24 ± 24.27	253.24 ± 31.55	21.17 ± 3.36	56.0 ± 17.2	26.2 ± 15.2	3.0 ± 1.5	35.69 ± 3.70	60.84 ± 4.81	35.6 ± 10.7	366.0 ± 30.2*** 10 mg · L^−1	Dose of Oua at appearance of CA [7, 12]: 0.2232 ± 0.0307 mg/kg; Dose of Oua at appearance of VF [7, 12]: 0.1981 ± 0.0415 mg/kg; Dose of Oua at appearance of VP [7, 12]: 0.116 ± 0.037 mg/kg; Dose of Oua at appearance of VT [7, 12]: 0.1402 ± 0.0356 mg/kg; Cr [6]: 35.78 ± 7.26*** 10 mg · L^−1
